Data reported in ChEMBL document CHEMBL4602648, “The bioisosteric modification of pyrazinamide derivatives led to potent antitubercular agents: Synthesis via click approach and molecular docking of pyrazine-1,2,3-triazoles” (Bioorg Med Chem Lett, 2020).
Values after ≈ are worked out from the molar mass of the structure shown. Active and inactive are the calls of the source. The calls are words filed in the database; no cut-off is given here.

What was measured:
[1] = target: T1, Enoyl-[acyl-carrier-protein] reductase [NADH] (Mycobacterium tuberculosis) (UniProt P9WGR1); assay: Inhibition of Mycobacterium tuberculosis H37Rv ATCC 27294 InhA assessed as bacterial growth inhibition after 5 days by microplate alamar blue assay
T1 sequence (whole entry): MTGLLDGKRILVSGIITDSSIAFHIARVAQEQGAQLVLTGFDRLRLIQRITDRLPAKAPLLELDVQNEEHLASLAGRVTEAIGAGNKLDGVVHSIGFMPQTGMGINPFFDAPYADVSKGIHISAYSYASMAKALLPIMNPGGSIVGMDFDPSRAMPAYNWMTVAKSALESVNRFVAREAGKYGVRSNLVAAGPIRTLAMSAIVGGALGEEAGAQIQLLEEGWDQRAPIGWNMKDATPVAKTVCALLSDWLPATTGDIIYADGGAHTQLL

Escherichia coli = assay: Antibacterial activity against Escherichia coli by dilution assay; assay type: functional
Staphylococcus aureus = assay: Antibacterial activity against Staphylococcus aureus by dilution assay; assay type: functional
Pseudomonas aeruginosa = assay: Antibacterial activity against Pseudomonas aeruginosa by dilution assay; assay type: functional
Vero = assay: Cytotoxicity against African green monkey Vero cells assessed as reduction in cell viability incubated for 48 hrs by MTT assay; assay type: cell-based; conditions: Chlorocebus sabaeus
[2] = Selectivity index, ratio of IC50 for cytotoxicity against African green monkey Vero cells to MIC for antitubercular activity against Mycobacterium tuberculosis H37Rv ATCC 27294; assay type: toxicity, cell-based; conditions: read-out: Selectivity Index
[3] = Cytotoxicity against African green monkey Vero cells assessed as growth inhibition at 62.5 ug/ml after 48 hrs by MTT assay relative to control; assay type: cell-based; conditions: chlorocebus sabaeus, read-out: GI

Structure (SMILES) | MIC [1] [µM] | MIC (Escherichia coli) | MIC (Staphylococcus aureus) [µg/mL] | MIC (Pseudomonas aeruginosa) | IC50 (Vero) [µg/mL] | selectivity ratio [2] | inhibition at 48 h, 62.5 ug/ml [3] [%]
N#Cc1ccc(Cn2cc(CNC(=O)c3cnccn3)nn2)cc1 | 4.88 (≈ 1.56 µg/mL) | 6.25 µg/mL (≈ 19.6 µM) | 6.25 (≈ 19.6 µM) | 6.25 µg/mL (≈ 19.6 µM) | 533 (≈ 1670 µM) | 342 | 12.3
Cc1ccc(Cn2cc(CSc3nnc(-c4cnccn4)o3)nn2)cc1 | 8.53 (≈ 3.12 µg/mL) | 12.5 µg/mL (≈ 34.2 µM) | 12.5 (≈ 34.2 µM) | 25 µg/mL (≈ 68.4 µM) |  |  | 
N#Cc1ccc(Cn2cc(CSc3nnc(-c4cccnc4)o3)nn2)cc1 | 66.6 (≈ 25 µg/mL) | 50 µg/mL (≈ 133 µM) | 50 (≈ 133 µM) | 50 µg/mL (≈ 133 µM) |  |  | 
O=C(OCc1cn(Cc2ccc([N+](=O)[O-])cc2)nn1)c1cnccn1 | 18.4 (≈ 6.25 µg/mL) | 25 µg/mL (≈ 73.5 µM) | 25 (≈ 73.5 µM) | 50 µg/mL (≈ 147 µM) |  |  | 
O=C(NCc1cn(Cc2ccc(C(F)(F)F)cc2)nn1)c1ccccc1 | > 100 | inactive | 50 (≈ 139 µM) | 25 µg/mL (≈ 69.4 µM) |  |  | 
O=C(NCc1cn(Cc2ccc([N+](=O)[O-])cc2)nn1)c1ccccc1 | > 100 | 50 µg/mL (≈ 148 µM) | 50 (≈ 148 µM) | 50 µg/mL (≈ 148 µM) |  |  | 
O=C(NCc1cn(Cc2ccc(F)cc2)nn1)c1cccnc1 | 80.3 (≈ 25 µg/mL) | 12.5 µg/mL (≈ 40.2 µM) | 12.5 (≈ 40.2 µM) | 25 µg/mL (≈ 80.3 µM) |  |  | 
O=C(OCc1cn(Cc2ccc([N+](=O)[O-])cc2)nn1)c1ccccc1 | > 100 | inactive | 50 (≈ 148 µM) | inactive |  |  | 
N#Cc1ccc(Cn2cc(COC(=O)c3ccccc3)nn2)cc1 | 39.3 (≈ 12.5 µg/mL) | 25 µg/mL (≈ 78.5 µM) | 25 (≈ 78.5 µM) | 50 µg/mL (≈ 157 µM) |  |  | 
FC(F)(F)c1ccc(Cn2cc(CSc3nnc(-c4cnccn4)o3)nn2)cc1 | 59.6 (≈ 25 µg/mL) | 25 µg/mL (≈ 59.6 µM) | 25 (≈ 59.6 µM) | 25 µg/mL (≈ 59.6 µM) |  |  | 
O=C(OCc1cn(Cc2ccc(C(F)(F)F)cc2)nn1)c1cccnc1 | 34.5 (≈ 12.5 µg/mL) | 25 µg/mL (≈ 69 µM) | 25 (≈ 69 µM) | 50 µg/mL (≈ 138 µM) |  |  | 
O=C(NCc1cn(Cc2ccc([N+](=O)[O-])cc2)nn1)c1cnccn1 | 4.59 (≈ 1.56 µg/mL) | 6.25 µg/mL (≈ 18.4 µM) | 3.12 (≈ 9.19 µM) | 6.25 µg/mL (≈ 18.4 µM) | 403 (≈ 1190 µM) | 258 | 20.5
O=C(OCc1cn(Cc2ccccc2F)nn1)c1cnccn1 | 19.9 (≈ 6.23 µg/mL) | 25 µg/mL (≈ 79.8 µM) | 25 (≈ 79.8 µM) | 50 µg/mL (≈ 160 µM) |  |  | 
O=[N+]([O-])c1ccc(Cn2cc(CSc3nnc(-c4cnccn4)o3)nn2)cc1 | 15.8 (≈ 6.25 µg/mL) | inactive | 12.5 (≈ 31.5 µM) | 25 µg/mL (≈ 63.1 µM) |  |  | 
O=C(NCc1cn(Cc2ccc(C(F)(F)F)cc2)nn1)c1cnccn1 | 4.31 (≈ 1.56 µg/mL) | 12.5 µg/mL (≈ 34.5 µM) | 12.5 (≈ 34.5 µM) | 25 µg/mL (≈ 69 µM) | 342 (≈ 944 µM) | 219 | 8.4
O=C(OCc1cn(Cc2ccccc2F)nn1)c1ccccc1 | 80.3 (≈ 25 µg/mL) | 25 µg/mL (≈ 80.3 µM) | 25 (≈ 80.3 µM) | 50 µg/mL (≈ 161 µM) |  |  | 
O=C(NCc1cn(Cc2ccc(F)cc2)nn1)c1ccccc1 | > 100 | inactive | 50 (≈ 161 µM) | inactive |  |  | 
Fc1ccc(Cn2cc(CSc3nnc(-c4cccnc4)o3)nn2)cc1 | > 100 | inactive | 50 (≈ 136 µM) | inactive |  |  | 
CN[C@@H]1[C@H](O[C@H]2[C@H](O[C@H]3[C@H](O)[C@@H](O)[C@H](N=C(N)N)[C@@H](O)[C@@H]3N=C(N)N)O[C@@H](C)[C@]2(O)C=O)O[C@@H](CO)[C@H](O)[C@H]1O | 11.7 (≈ 6.83 µg/mL) |  |  |  |  |  | 
O=C(NCc1cn(Cc2ccc([N+](=O)[O-])cc2)nn1)c1cccnc1 | 4.61 (≈ 1.56 µg/mL) | 12.5 µg/mL (≈ 36.9 µM) | 6.25 (≈ 18.5 µM) | 6.25 µg/mL (≈ 18.5 µM) | 465 (≈ 1380 µM) | 298 | 7.08
N#Cc1ccc(Cn2cc(CNC(=O)c3cccnc3)nn2)cc1 | 4.9 (≈ 1.56 µg/mL) | 6.25 µg/mL (≈ 19.6 µM) | 6.25 (≈ 19.6 µM) | 6.25 µg/mL (≈ 19.6 µM) | 399 (≈ 1250 µM) | 256 | 17.7
O=C(OCc1cn(Cc2ccc(F)cc2)nn1)c1cccnc1 | > 100 | inactive | 50 (≈ 160 µM) | 50 µg/mL (≈ 160 µM) |  |  | 
O=C(NCc1cn(Cc2ccccc2F)nn1)c1cnccn1 | 9.99 (≈ 3.12 µg/mL) | 12.5 µg/mL (≈ 40 µM) | 6.25 (≈ 20 µM) | 12.5 µg/mL (≈ 40 µM) |  |  | 

Structure (SMILES) | MIC [1] [µM] | MIC (Escherichia coli) | MIC (Staphylococcus aureus) [µg/mL] | MIC (Pseudomonas aeruginosa) | IC50 (Vero) [µg/mL] | selectivity ratio [2] | inhibition at 48 h, 62.5 ug/ml [3] [%]
N#Cc1ccc(Cn2cc(CNC(=O)c3ccccc3)nn2)cc1 | 39.4 (≈ 12.5 µg/mL) | 25 µg/mL (≈ 78.8 µM) | 25 (≈ 78.8 µM) | 25 µg/mL (≈ 78.8 µM) |  |  | 
O=C(OCc1cn(Cc2ccc(C(F)(F)F)cc2)nn1)c1cnccn1 | 8.59 (≈ 3.12 µg/mL) | 25 µg/mL (≈ 68.8 µM) | 25 (≈ 68.8 µM) | 25 µg/mL (≈ 68.8 µM) |  |  | 
O=C(O)c1cn(C2CC2)c2cc(N3CCNCC3)c(F)cc2c1=O [CIPROFLOXACIN] | 9.41 (≈ 3.12 µg/mL) |  | 2 (≈ 6.04 µM) | 4 µg/mL (≈ 12.1 µM) |  |  | 
O=C(NCc1cn(Cc2ccccc2F)nn1)c1ccccc1 | > 100 | inactive | 50 (≈ 161 µM) | 50 µg/mL (≈ 161 µM) |  |  | 
Fc1ccccc1Cn1cc(CSc2nnc(-c3cccnc3)o2)nn1 | > 100 | 50 µg/mL (≈ 136 µM) | 50 (≈ 136 µM) | 25 µg/mL (≈ 67.9 µM) |  |  | 
Fc1ccc(Cn2cc(CSc3nnc(-c4cnccn4)o3)nn2)cc1 | 33.8 (≈ 12.5 µg/mL) | 25 µg/mL (≈ 67.7 µM) | 25 (≈ 67.7 µM) | 50 µg/mL (≈ 135 µM) |  |  | 
O=[N+]([O-])c1ccc(Cn2cc(CSc3nnc(-c4cccnc4)o3)nn2)cc1 | 63.2 (≈ 25 µg/mL) | 50 µg/mL (≈ 126 µM) | 25 (≈ 63.2 µM) | 25 µg/mL (≈ 63.2 µM) |  |  | 
O=C(OCc1cn(Cc2ccccc2F)nn1)c1cccnc1 | 80 (≈ 25 µg/mL) | 25 µg/mL (≈ 80.1 µM) | 50 (≈ 160 µM) | 50 µg/mL (≈ 160 µM) |  |  | 
O=C(NCc1cn(Cc2ccc(F)cc2)nn1)c1cnccn1 | 4.99 (≈ 1.56 µg/mL) | 12.5 µg/mL (≈ 40 µM) | 6.25 (≈ 20 µM) | 12.5 µg/mL (≈ 40 µM) | 496 (≈ 1590 µM) | 318 | 5.9
O=C(OCc1cn(Cc2ccc(F)cc2)nn1)c1cnccn1 | 9.95 (≈ 3.12 µg/mL) | 12.5 µg/mL (≈ 39.9 µM) | 12.5 (≈ 39.9 µM) | 25 µg/mL (≈ 79.8 µM) |  |  | 
O=C(NCc1cn(Cc2ccccc2F)nn1)c1cccnc1 | 10 (≈ 3.12 µg/mL) | 25 µg/mL (≈ 80.3 µM) | 6.25 (≈ 20.1 µM) | 25 µg/mL (≈ 80.3 µM) |  |  | 
O=C(OCc1cn(Cc2ccc(F)cc2)nn1)c1ccccc1 | 80.3 (≈ 25 µg/mL) | 50 µg/mL (≈ 161 µM) | 25 (≈ 80.3 µM) | 25 µg/mL (≈ 80.3 µM) |  |  | 
O=C(OCc1cn(Cc2ccc(C(F)(F)F)cc2)nn1)c1ccccc1 | > 100 | inactive | 50 (≈ 138 µM) | inactive |  |  | 
N#Cc1ccc(Cn2cc(COC(=O)c3cccnc3)nn2)cc1 | 78.3 (≈ 25 µg/mL) | 50 µg/mL (≈ 157 µM) | 25 (≈ 78.3 µM) | 50 µg/mL (≈ 157 µM) |  |  | 
N#Cc1ccc(Cn2cc(CSc3nnc(-c4cnccn4)o3)nn2)cc1 | 16.6 (≈ 6.25 µg/mL) | 50 µg/mL (≈ 133 µM) | 25 (≈ 66.4 µM) | 50 µg/mL (≈ 133 µM) |  |  | 
FC(F)(F)c1ccc(Cn2cc(CSc3nnc(-c4cccnc4)o3)nn2)cc1 | > 100 | 50 µg/mL (≈ 120 µM) | 25 (≈ 59.8 µM) | 50 µg/mL (≈ 120 µM) |  |  | 
O=C(NCc1cn(Cc2ccc(C(F)(F)F)cc2)nn1)c1cccnc1 | 4.31 (≈ 1.56 µg/mL) | 6.25 µg/mL (≈ 17.3 µM) | 12.5 (≈ 34.6 µM) | 12.5 µg/mL (≈ 34.6 µM) | 336 (≈ 931 µM) | 216 | 7.42
Cc1ccc(Cn2cc(CSc3nnc(-c4cccnc4)o3)nn2)cc1 | 34.3 (≈ 12.5 µg/mL) | 252 µg/mL (≈ 691 µM) | 12.5 (≈ 34.3 µM) | 225 µg/mL (≈ 617 µM) |  |  | 
N#Cc1ccc(Cn2cc(COC(=O)c3cnccn3)nn2)cc1 | 9.74 (≈ 3.12 µg/mL) | 50 µg/mL (≈ 156 µM) | 12.5 (≈ 39 µM) | 25 µg/mL (≈ 78 µM) |  |  | 
NC(=O)c1cnccn1 | 25.3 (≈ 3.12 µg/mL) |  |  |  |  |  | 
Fc1ccccc1Cn1cc(CSc2nnc(-c3cnccn3)o2)nn1 | > 100 | inactive | 50 (≈ 135 µM) | inactive |  |  | 
O=C(OCc1cn(Cc2ccc([N+](=O)[O-])cc2)nn1)c1cccnc1 | 36.8 (≈ 12.5 µg/mL) | 25 µg/mL (≈ 73.7 µM) | 25 (≈ 73.7 µM) | 25 µg/mL (≈ 73.7 µM) |  |  | 
